This is an account of results in patent US10329262B2, “Quinazolinone antibiotics” (priority 2013, dated 2019).

Values after ≈ are worked out from the molar mass of the structure shown. Read-outs that look alike come from different tables or passages of the source.

In one data set the test system is S. aureus NRS70. The experiment in a line: MIC, broth microdilution, S. aureus NRS70. The format is cell-based, Staphylococcus aureus. To be noted: for MIC: Staphylococcus aureus. As for the experimental part: (§1) MICs were evaluated following the CLSI microdilution method in BBL™ Mueller-Hinton II broth (Wikler et al., Clinical Laboratory Standards Institute Document M7-A7, 29 (2009)). Briefly, two-fold serial dilutions of compound were prepared in triplicate in 96-well plates and inoculated with 5×10^5 cfu/mL of the bacterial suspension. Plates were incubated at 37° C. for 16-20 hours.

The next data set relates to S. aureus NRS123. In words: MIC, broth microdilution, S. aureus NRS123. The format is cell-based. The following applies: Staphylococcus aureus. The protocol: as §1
On the technique in general: In broth dilution the organism is exposed to a series of concentrations in liquid medium.

Data set [1] relates to S. haemolyticus ATCC 29970. In words: MIC, CLSI broth microdilution, S. haemolyticus ATCC 29970. The format is cell-based. To be noted: for MIC: Table 2, S. haemolyticus ATCC 29970. The protocol:
as §1

In another data set the test system is S. aureus NRS128. The experiment in a line: MIC, CLSI broth microdilution, S. aureus NRS128. The format is cell-based, Staphylococcus aureus. To be noted: Table 2.1, S. aureus NRS128. The protocol:
as §1

The subject of a further data set is S. aureus NRS100. In words: MIC, CLSI broth microdilution, S. aureus NRS100. The format is cell-based, Staphylococcus aureus. The following applies: for MIC: Table 2, S. aureus NRS100. As for the experimental part: as §1
The subject of data set [2] is S. epidermidis ATCC 35547. In words: MIC, CLSI broth microdilution, S. epidermidis ATCC 35547. To be noted: for MIC: Table 2, S. epidermidis ATCC 35547. The format is cell-based. The protocol:
as §1

The subject of another data set is S. aureus VRS1. In words: MIC, CLSI broth microdilution, S. aureus VRS1. The format is cell-based, Staphylococcus aureus. To be noted: for MIC: Table 2, S. aureus VRS1. As for the experimental part: as §1
The test system of a further data set is S. aureus NRS120. In words: MIC, CLSI broth microdilution, S. aureus NRS120. The format is cell-based, Staphylococcus aureus. The following applies: for MIC: Table 2, S. aureus NRS120. The protocol:
as §1

The next data set deals with S. aureus VRS2. In words: MIC, CLSI broth microdilution, S. aureus VRS2. The following applies: for MIC: Table 2, S. aureus VRS2. The format is cell-based, Staphylococcus aureus. As for the experimental part: as §1
A further data set has as its system S. aureus NRS119. In words: MIC, CLSI broth microdilution, S. aureus NRS119. To be noted: for MIC: Table 2, S. aureus NRS119. The format is cell-based, Staphylococcus aureus. As for the experimental part:
as §1

Data set [3] relates to S. aureus ATCC 29213 (MSSA). In words: MIC, CLSI broth microdilution, S. aureus ATCC 29213. The format is cell-based, Staphylococcus aureus. To be noted: for MIC (w/ BSA): S. aureus ATCC 29213, in the presence of bovine serum albumin; for MIC: S. aureus strain ATCC 29213 (MSSA). The protocol: as §1
A short description of the next data set: Pharmacokinetics in mice. To be noted: Table 1, ICR female mice, single dose iv. The protocol: We conducted first fast PK studies (n=2 mice per time point, 5 time points) dosing the compounds iv, followed by full PK studies for selected compounds (n=3 mice per time point, 10-12 time points per route of administration, iv and po).
A single dose of compound 2 was administered to mice (n=3 per time point) by tail vein injection or by oral gavage at 10 mg/kg. Blood was collected by cardiac puncture in heparinized syringes at 2, 5, 20, and 40 min and at 1, 2, 3, 4, 8, 18, and 24 h after iv dosing and at 0.5, 1, 2, 3, 4, 6, 9, 24, and 30 h after po dosing. Blood was centrifuged to obtain plasma. A 50-μL aliquot of plasma was mixed with 100 μL of acetonitrile containing internal standard (5 μM final concentration), followed by centrifugation at 20,000 g for 15 min. The supernatant was analyzed by reverse-phase UPLC. PK parameters were calculated as described in the Plasma protein binding and Pharmacokinetics sections below (see also Gooyit et al. J. Med. Chem. 54, 6676-6690 (2011)).
The area under the concentration-time curve up to the last quantifiable sampling time (AUC0-last) was calculated by the trapezoidal rule. AUC0-∞ was calculated as AUC0-last+(Clast/k), where Clast is the concentration at the last quantifiable sampling time and k is the elimination rate constant. The concentration at time=0 (C0) was estimated from the first sampling times by back-extrapolation using log-linear regression analysis. Half-lives (t1/2α and t1/2β) were estimated from the linear portion of the initial or terminal concentration-time data by linear regression, where the slope of the line was the rate constant k and t1/2α=ln 2/k. Volume of distribution (Vd) was calculated as the dose divided by the initial concentration (C0). Clearance (CL) was calculated from the dose divided by AUC0-∞. Oral bioavailability (F) was calculated by dividing the AUCpo by the AUCiv, as equivalent iv and po doses were administered.

The next data set concerns MRSA ATCC 27660. In words: Mouse peritonitis model of MRSA infection. The format is in vivo, mice. The following applies: n = 6, 48 h. As for the experimental part: We evaluated several compounds in in vivo mouse infection models, as well as in pharmacokinetic (PK) studies in mice (Table 1). The in vivo efficacy was determined using the rapid mouse peritonitis model of infection, in which the end point is death or survival in 48 hours. We initially dosed the compounds intravenously (iv) at a single dose level. If the compound has good in vivo efficacy after iv administration, we then evaluated efficacy at five dose levels. We also investigated in vivo efficacy after oral (po) administration.
Groups (n=6/group) of mice were infected with MRSA (0.5 mL of ATCC 27660 at a final concentration of 5×10^7 CFU/mL in 5% porcine mucin) intraperitoneally (ip). Following infection, mice were given iv doses by tail vein injection of compound 2, vancomycin (5 mg/kg, positive control), or vehicle at 30 min and 4.5 h after infection. The number of surviving mice was monitored for 48 h. The negative control (vehicle) typically results in the death of all mice. Quinazolinone 2 was dissolved in saline, sterile-filtered, and administered at doses of 2.5, 5, 7.5, 10, 20, and 30 mg/kg. The ED50 value was calculated using GraphPad prism 5.

[4] abbreviates: Staphylococcus aureus, read-out: MIC.

On to `CO/N=C(\C(=O)N[C@@H]1C(=O)N2C(C(=O)[O-])=C(C[N+]3(C)CCCC3)CS[C@H]12)c1csc(N)n1` [cefepime], for which the MIC worked out at 64 µg/mL (≈ 133 µM) with S. aureus NRS70 (NRS70, Table 3, single agent, read-out: MIC NRS70) and 32 µg/mL (≈ 66.6 µM) with S. aureus NRS123 (NRS123, Table 3, single agent, read-out: MIC NRS123).

Turning to `CC(=O)NC[C@H]1CN(c2ccc(N3CCOCC3)c(F)c2)C(=O)O1` [linezolid], the MIC is 1 µg/mL (≈ 2.96 µM) in the data set on S. aureus NRS70 (Table 2, S. aureus NRS70, read-out: MIC); 1 µg/mL (≈ 2.96 µM) in data set [1] (Staphylococcus haemolyticus, ATCC29970, read-out: MIC); 2 µg/mL (≈ 5.93 µM) with S. aureus NRS100 (setting [4]); 1 µg/mL (≈ 2.96 µM) in data set [2] (Staphylococcus epidermidis, ATCC35547, read-out: MIC); 2 µg/mL (≈ 5.93 µM) with S. aureus VRS1 (setting [4]); 64 µg/mL (≈ 190 µM) in the data set with S. aureus NRS120 (setting [4]). For the same molecule, the minimal inhibitory concentration (MIC) with S. aureus VRS2 (setting [4]) was 1 µg/mL (≈ 2.96 µM); in the data set with S. aureus NRS119 (setting [4]) it was 64 µg/mL (≈ 190 µM); in the data set with S. aureus NRS123 (Table 2, S. aureus NRS123, read-out: MIC) it was 2 µg/mL (≈ 5.93 µM). For the same molecule, the In vitro AB activity (MIC) with S. aureus NRS70 (Table 2.1, S. aureus NRS70) worked out at 1 µg/mL; in data set [1] (Table 2.1, S. haemolyticus ATCC 29970) it was 2 µg/mL; in the data set with S. aureus NRS128 it was 1 µg/mL; in the data set with S. aureus NRS100 (Table 2.1, S. aureus NRS100) it was 2 µg/mL; in data set [2] (Table 2.1, S. epidermidis ATCC 35547), 1 µg/mL; in the data set on S. aureus VRS1 (Table 2.1, S. aureus VRS1), 2 µg/mL. The In vitro AB activity (MIC) stood at 32 µg/mL in the data set with S. aureus NRS120 (Table 2.1, S. aureus NRS120); 2 µg/mL in the data set with S. aureus VRS2 (Table 2.1, S. aureus VRS2); 32 µg/mL in the data set on S. aureus NRS119 (Table 2.1, S. aureus NRS119); 4 µg/mL in data set [3] (Table 2.1, S. aureus ATCC 29213).

With `CS(=O)(=O)Nc1cccc(-n2c(/C=C/c3ccc(F)cc3)nc3ccccc3c2=O)c1` [Compound 6], in “Pharmacokinetics in mice”, the “AUC (iv)” value is recorded as “AUC = 819 μg.min/mL”, the CL entry is recorded as “CL = 28.0 mL/min/kg” and the Vd entry is reported as “Vd = 91.8 mL”. For the same molecule, in the data set on MRSA ATCC 27660 (10 mg/kg iv at 30 min and 4.5 hr after infection), the “In Vivo Efficacy (survived/total mice)” value is on record as 0/6 @ 10 mg/kg. Moreover, in data set [3], the “MIC (w/ BSA)” value was 1 µg/mL and the MIC turned out to be 0.125 µg/mL (≈ 0.287 µM).

On to `CC(=O)Nc1cccc(-n2c(/C=C/c3ccc(C#N)cc3)nc3ccccc3c2=O)c1` [Compound 8], for which the minimal inhibitory concentration (MIC) in data set [1] was 0.25 µg/mL (≈ 0.615 µM); against S. aureus NRS100, 1 µg/mL (≈ 2.46 µM); in data set [2] it was 0.06 µg/mL (≈ 0.148 µM); with S. aureus VRS1, 4 µg/mL (≈ 9.84 µM); against S. aureus NRS120, 0.25 µg/mL (≈ 0.615 µM); against S. aureus VRS2, 0.125 µg/mL (≈ 0.308 µM). In addition, the MIC (against S. aureus NRS119; in [3]) was 0.25 µg/mL (≈ 0.615 µM) each time. Also, the “AUC (iv)” value in “Pharmacokinetics in mice” is on record as “AUC = 1187 μg.min/mL”. The CL entry in “Pharmacokinetics in mice” was “CL = 131 mL/min/kg”. The Vd result in the data set “Pharmacokinetics in mice” was “Vd = 107 mL”. In the data set with MRSA ATCC 27660 (5 mg/kg iv at 30 min and 4.5 hr after infection), the “In Vivo Efficacy (survived/total mice)” value is 1/6 @ 5 mg/kg. The “MIC (w/ BSA)” value in data set [3] was 2 µg/mL.

The term MIC denotes the lowest concentration found to suppress growth.
